We go through 3 molecules from patent US20250303006A1, “BIOCOMPATIBLE ANTISEPTIC COMPOSITION CONTAINING 9-HYDROXYCALABAXANTHONE AND/OR RELATED XANTHONES” (UNIVERSITAT DE LES ILLES BALEARS, priority 2022, published 2025).

One series has as its system S. aureus. In kind it is cell-based. Here is the method:
S. aureus ATCC 29213 was grown from frozen stocks in Luria-Bertani (LB) broth (Scharlab), at 37° C. under aerobic conditions in an orbital shaker (180 rpm). After overnight incubation, 1 mL of bacterial suspensions were incubated with different concentrations of CHX (0.01, 0.005, 0.003, 0.001, 0.0001%) and HCX (0.003, 0.002, 0.001, 0.0002, 0.00002%) for 3 hours at 37° C. under aerobic conditions in an orbital shaker (180 rpm). Bacterial suspension without treatment served as negative control (C−). The optical density (OD) was measured at 600 nm at 0 h and 3 h to determine bacterial proliferation (PowerWave Ht). The bacterial growth rate (μ) was calculated during the exponential growth phase following the equation ln ODt−ln OD0=μ×(t−t0) (n=4). The live/Dead ratio of bacteria was determined using the LIVE/DEAD BacLight bacterial viability kit (Invitrogen), following the manufacturer's instructions. The assays were carried out in triplicate.
The bacteria S. aureus was cultured and treated with different commercial antiseptic gels and HA hydrogel with […] HCX. The gels were tested at a concentration of 5% (v/v), and the experiment was run like in experiment 7, section 7.1.
16.1. […]

Series [1] has as its system human gingival fibroblast cells. The series is described as follows: LDH cytotoxicity in immortalized human gingival fibroblasts. In kind it is cell-based. The procedure: Cells were seeded in 48-well plates at a density of 2×10^4 cells/well. When the cells reached confluence, they were treated with different concentrations of HCX, and cytotoxicity was determined.
48 hours after seeding the iHGF cells in 48-well plates, cell inflammation was induced by means of adding 1 μg/ml of P. gingivalis lipopolysaccharide (LPS) (InvivoGen, San Diego, CA, USA) and the cells were treated with different concentrations of HCX (0.00002, 0.0002, 0.002%) in a fibroblast medium with 50 μg/ml of ascorbic acid (Sigma-Aldrich, St. Louis, MO, USA) for 48 hours. Images of the cells were taken with a bright field inverted microscope (Nikon Eclipse TS100) before treatment and 24 hours and 48 hours after treatment.
To estimate the cytotoxicity of the different concentrations of HCX, the presence of lactate dehydrogenase (LDH) in the culture media 48 h after pro-inflammatory stimulation with LPS and treatment with HCX was used as the cell death index. Following the manufacturer's instructions (Cytotoxicity Detection kit, Roche Diagnostics, Mannheim, Germany), LDH activity was determined spectrophotometrically after a 30-minute incubation at room temperature (RT) of 50 μl of culture media and 50 μl of the reaction mixture, measuring nicotinamide adenine dinucleotide (NADH) oxidation at 490 nm in the presence of pyruvate. Results were presented in relation to LDH activity of the media of the cells seeded without treatment (negative control, 0% cell death) and in relation to cells treated with 1% Triton X-100 (positive control, 100% death) using the following equation: Cytotoxicity (%)=[(expected value−negative control)/(positive control−negative control)]×100.
Different hydrogel formulations with and without 0.05% of HCX (HA, GelMa, Alginate and HPMC) and commercial gel containing 0.2% chlorhexidine and unmodified HA (Periokin Hyaluronic 1%, Laboratorios Kin, Commercial HA 0.2% CHX) were used for studies with gingival fibroblasts and S. epidermidis. Cells and bacteria without hydrogels served as negative control (C−). Gels at a concentration of 5% (v/v) were used for cell and bacterial studies.
Immortalized human gingival fibroblasts were cultured like in experiment 1 of section 1.2. The cells were treated with different hydrogel formulations with and without 0.05% of HCX (HA, GelMa, Alginate and HPMC) and commercial gel containing 0.2% chlorhexidine and unmodified HA (Periokin Hyaluronic 1%, Laboratorios Kin, commercial HA 0.2% CHX) in a fibroblast medium for 24 hours (n=4). Cell cytotoxicity was measured, like in experiment 1 of section 1.4.
16.1. […]
Immortalized human gingival fibroblasts were cultured like in experiment 1 of section 1.2. […] Cell cytotoxicity was measured, like in experiment 1 of section 1.4.

`CC(C)=CCc1c(O)cc(O)c2c(=O)c3cc4c(c(O)c3oc12)OC(C)(C)C=C4` [FXA, Formoxanthone A]: the “concentration with antibacterial effect without cytotoxicity” value in the series with S. aureus (S. aureus 3 h together with LDH cytotoxicity in gingival fibroblasts 24 h) came to 0.001%.
On to `O=c1c2cc(O)c(O)cc2oc2cc(O)cc(O)c12` [NRT, norathryol, reference compound], for which the “biocompatibility for the cells (LDH cytotoxicity)” value in series [1] (all concentrations tested (0.4-77 μM), 24 h) is listed as “biocompatible”. The antibacterial effect result with S. aureus (all concentrations tested (0.4-77 μM), 3 h) is reported as “none of them were antibacterial”.
With `COc1c(O)cc2oc3cc(O)c(CC=C(C)C)c(O)c3c(=O)c2c1CC=C(C)C` [aMG, α-Mangostin], the toxicity to cells result in series [1] (0.002% in solution) is on record as “already toxic”.
